Results from EP0414533A1, “Use of iodopropargyl esters of alpha-amino acid derivatives as antimicrobial agents” (ROHM AND HAAS COMPANY, priority 1989, dated 1991).
≈ marks a conversion by molar mass, not a printed value. Like-named read-outs stand apart in the source and are kept apart here.

How the values were obtained:
[1] = system: Pseudomonas fluorescens (PSFL); experiment: Minimum inhibitory concentration (MIC), broth two-fold serial dilution test; conditions: Pseudomonas fluorescens
[2] = system: Aureobasidium pullulans (APUL); experiment: as above; format: cell-based; conditions: Aureobasidium pullulans, read-out: MIC (F) APUL
[3] = system: MIXED COOLING TOWER ALGAE; experiment: MIC test against mixed cooling tower algae; format: cell-based, green algae and blue-green bacteria; conditions: Table VIII
Experimental: The algae culture contains green algae and blue-green bacteria, and is obtained from a cooling tower in Spring House, Pennsylvania. The algae culture is grown in Allen's medium on a rotary shaker under flourescent room lighting. This culture is further diluted with Allen's medium and then added to the test vessel.

8 FUNGI = experiment: Microbicides secondary test against 8 fungi on Mycophile Agar at pH 5.0 (Table VI); format: cell-based; design: key: 1= no growth; 0= growth of the indicated fungi at dose indicated in ppm; conditions: for ANIG growth: Aspergillus niger; for APUL growth: Aureobasidium pullulans; for CGLO growth: Chaetomium globosum; for CRES growth: Cladosporium resinae; for GTRA growth: Gloeophyllum trabeum; for PFUN growth: Penicillium funiculosum; for RRUB growth: Rhodotorula rubra; for SSER growth: Sacharomyces cerevisiae
Text: The results of the minimum inhibitory concentration (MIC) tests of compounds of this invention are shown in Tables IIIa IIIb, IIIc, V, VI, VII, and VIII against the microorganisms shown in Table IX.

[4] = system: Staphylococcus aureus (SAUR); experiment: Minimum inhibitory concentration (MIC), broth two-fold serial dilution test; conditions: Staphylococcus aureus
Aspergillus niger (ANIG) = experiment: as above; format: cell-based; conditions: Aspergillus niger, read-out: MIC (F) ANIG
Escherichia coli (ECOL) = experiment: as above; conditions: Escherichia coli
[5] = system: Pseudomonas aerugenosa (PSAE); experiment: as above; conditions: Pseudomonas
THREE FUNGI = experiment: MIC test against three fungi in Mycophile Broth, pH 5.0, read after 8 days (Table VII); format: cell-based; conditions: 192 h, serial dilutions from 50 ppm, read after 8 days of incubation
Botrytis cinerea (BOC) = experiment: In-vitro plant fungicide test; format: cell-based; conditions: Botrytis cinerea, 25 ppm; Table IVa; *=Phytotoxic; read-out: % Control at 25 ppm BOC
[6] = system: Cochliobolus sativus (HEL); experiment: In-vitro plant fungicide test; format: cell-based; conditions: Bipolaris sorokiniana, 25 ppm; Table IVa; *=Phytotoxic; read-out: % Control at 25 ppm HEL
Pythium ultimum (PYU) = experiment: In-vitro plant fungicide test; format: cell-based; conditions: Globisporangium ultimum; 25 ppm; Table IVa; read-out: % Control at 25 ppm PYU
Fusarium roseum (FUS) = experiment: In-vitro plant fungicide test; format: cell-based; conditions: Fusarium sambucinum, read-out: % Control at 25 ppm FUS, 25 ppm; Table IVa; *=Phytotoxic
Piricularia oryzae (PIR) = experiment: microbe, parasite or virus in culture; format: cell-based; conditions: read-out: % Control at 25 ppm PIR
[7] = system: Xanthomonas campestris (XAN); experiment: In-vitro plant fungicide test; format: cell-based; conditions: Xanthomonas campestris; 25 ppm; Table IVa; read-out: % Control at 25 ppm XAN
Septoria nodorum (SEP) = experiment: In-vitro plant fungicide test; format: cell-based; conditions: Parastagonospora nodorum, 25 ppm; Table IVa; read-out: % Control at 25 ppm SEP
[8] = system: Phytophthora capsici (PHY); experiment: In-vitro plant fungicide test; format: cell-based; conditions: Phytophthora capsici; 25 ppm; Table IVa; read-out: % Control at 25 ppm PHY
Rhizoctonia solani (RHI) = experiment: In-vitro plant fungicide test; format: cell-based; conditions: Rhizoctonia solani; 25 ppm; Table IVa; read-out: % Control at 25 ppm RHI
[9] = IIIB, trypticase soy broth (complex media), Table IIIb
[10] = Aspergillus niger, read-out: MIC ANIG
[11] = Aureobasidium pullulans, read-out: MIC APUL
[12] = Gloeophyllum trabeum, read-out: MIC GTRA
[13] = read-out: MIC (G-) PSFL, M9G (minimal salts media with glucose), Table IIIc, iodopropargyl esters of peptides
[14] = M9G (minimal salts media with glucose), Table IIIc, iodopropargyl esters of peptides
[15] = read-out: MIC (G+) SAUR, M9G (minimal salts media with glucose), Table IIIc, iodopropargyl esters of peptides
[16] = read-out: MIC (G-) ECOL, M9G (minimal salts media with glucose), Table IIIc, iodopropargyl esters of peptides
[17] = read-out: MIC (G-) PSAE, M9G (minimal salts media with glucose), Table IIIc, iodopropargyl esters of peptides

C/C=C/C=C/C(=O)NCC(=O)OCC#CI [Compound 35, N-sorbylglycine iodopropargyl ester]
MIC ([1]; IIIB, read-out: MIC (G-) PSFL, trypticase soy broth (complex media), Table IIIb): 63 µg/mL (≈ 189 µM) | MIC [2, 9]: 4 µg/mL (≈ 12 µM) | MIC [3]: 6.2 µg/mL (≈ 18.6 µM) | ANIG growth (8 FUNGI; 0.2 PPM): 0 | ANIG growth (8 FUNGI; 1.0 PPM): 1 | ANIG growth (8 FUNGI; 2.5 PPM): 1 | ANIG growth (8 FUNGI; 25 PPM): 1 | APUL growth (8 FUNGI; 0.2 PPM): 0 | APUL growth (8 FUNGI; 1.0 PPM): 0 | APUL growth (8 FUNGI; 2.5 PPM): 0 | APUL growth (8 FUNGI; 25 PPM): 1 | CGLO growth (8 FUNGI; 0.2 PPM): 0 | CGLO growth (8 FUNGI; 1.0 PPM): 1 | CGLO growth (8 FUNGI; 2.5 PPM): 1 | CGLO growth (8 FUNGI; 25 PPM): 1 | CRES growth (8 FUNGI; 0.2 PPM): 0 | CRES growth (8 FUNGI; 1.0 PPM): 0 | CRES growth (8 FUNGI; 2.5 PPM): 0 | CRES growth (8 FUNGI; 25 PPM): 1 | GTRA growth (8 FUNGI; 0.2 PPM): 0 | GTRA growth (8 FUNGI; 1.0 PPM): 1 | GTRA growth (8 FUNGI; 2.5 PPM): 1 | GTRA growth (8 FUNGI; 25 PPM): 1 | PFUN growth (8 FUNGI; 0.2 PPM): 0 | PFUN growth (8 FUNGI; 1.0 PPM): 0 | PFUN growth (8 FUNGI; 2.5 PPM): 1 | PFUN growth (8 FUNGI; 25 PPM): 1 | RRUB growth (8 FUNGI; 0.2 PPM): 0 | RRUB growth (8 FUNGI; 1.0 PPM): 0 | RRUB growth (8 FUNGI; 2.5 PPM): 1 | RRUB growth (8 FUNGI; 25 PPM): 1 | SSER growth (8 FUNGI; 0.2 PPM): 0 | SSER growth (8 FUNGI; 1.0 PPM): 0 | SSER growth (8 FUNGI; 2.5 PPM): 0 | SSER growth (8 FUNGI; 25 PPM): 1 | MIC ([4]; IIIB, read-out: MIC (G+) SAUR, trypticase soy broth (complex media), Table IIIb): 63 µg/mL (≈ 189 µM) | MIC (Aspergillus niger (ANIG); [9]): 2 µg/mL (≈ 6 µM) | MIC (Escherichia coli (ECOL); IIIB, read-out: MIC (G-) ECOL, trypticase soy broth (complex media), Table IIIb): 125 µg/mL (≈ 375 µM) | MIC ([5]; IIIB, read-out: MIC (G-) PSAE, trypticase soy broth (complex media), Table IIIb): 125 µg/mL (≈ 375 µM) | MIC (THREE FUNGI; [10]): 1.6 µg/mL (≈ 4.8 µM) | MIC (THREE FUNGI; [11]): 6.2 µg/mL (≈ 18.6 µM) | MIC (THREE FUNGI; [12]): 0.4 µg/mL (≈ 1.2 µM)

C[C@H](NC(=O)OC(C)(C)C)C(=O)NCC(=O)OCC#CI [Compound 12, N-t-butoxycarbonyl-L-alanylglycine iodopropargyl ester]
inhibition of growth at 25 ppm (Botrytis cinerea (BOC)): 0% | MIC [1, 13]: 50 µg/mL | inhibition of growth at 25 ppm [6]: 0% | MIC [2, 14]: < 0.8 µg/mL | inhibition of growth at 25 ppm (Pythium ultimum (PYU)): 100% | MIC [4, 15]: 50 µg/mL | inhibition of growth at 25 ppm (Fusarium roseum (FUS)): 0% | inhibition of growth at 25 ppm (Piricularia oryzae (PIR)): 100% | MIC (Aspergillus niger (ANIG); [14]): 6 µg/mL | MIC (Escherichia coli (ECOL); [16]): 50 µg/mL | inhibition of growth at 25 ppm [7]: 0% | inhibition of growth at 25 ppm (Septoria nodorum (SEP)): 95% | inhibition of growth at 25 ppm [8]: 100% | inhibition of growth at 25 ppm (Rhizoctonia solani (RHI)): 100% | MIC [5, 17]: 50 µg/mL | MIC (THREE FUNGI; [10]): 25 µg/mL (≈ 60.9 µM) | MIC (THREE FUNGI; [11]): > 50 µg/mL | MIC (THREE FUNGI; [12]): 6.2 µg/mL (≈ 15.1 µM)

C[C@H](NC(=O)OC(C)(C)C)C(=O)N[C@@H](CSCc1ccccc1)C(=O)OCC#CI [Compound 15, N-t-butoxycarbonyl-L-alanyl-S-benzyl-L-cysteine iodopropargyl ester]
inhibition of growth at 25 ppm (Botrytis cinerea (BOC)): 0% | MIC [1, 13]: > 100 µg/mL | inhibition of growth at 25 ppm [6]: 0% | MIC [2, 14]: 1.6 µg/mL | inhibition of growth at 25 ppm (Pythium ultimum (PYU)): 100% | MIC [4, 15]: > 100 µg/mL | inhibition of growth at 25 ppm (Fusarium roseum (FUS)): 100% | inhibition of growth at 25 ppm (Piricularia oryzae (PIR)): 100% | MIC (Aspergillus niger (ANIG); [14]): 6 µg/mL | MIC (Escherichia coli (ECOL); [16]): > 100 µg/mL | inhibition of growth at 25 ppm [7]: 0% | inhibition of growth at 25 ppm (Septoria nodorum (SEP)): 100% | inhibition of growth at 25 ppm [8]: 100% | inhibition of growth at 25 ppm (Rhizoctonia solani (RHI)): 100% | MIC [5, 17]: > 100 µg/mL | MIC (THREE FUNGI; [10]): > 50 µg/mL | MIC (THREE FUNGI; [11]): > 50 µg/mL | MIC (THREE FUNGI; [12]): 50 µg/mL (≈ 91.5 µM)
